Test results reported in patent US9089139B2, “Agri-horticultural pest control compositions comprising 4-(3-butynyl)aminopyrimidine derivatives” (SDS Biotech K. K., priority 2011, dated 2015).
Read-outs that look alike come from different tables or passages of the source.

Key:
Sphaerotheca fuliginea = test: Test 1: control effect against powdery mildew on cucumber (control index); format: in vivo, Sphaerotheca fuliginea on cucumber (variety: SAGAMI HANJIRO); conditions: for pest or weed control at 10 ppm: read-out: Control index; for pest or weed control at 100 ppm: test concentration 100 ppm
Source text: The expected efficacies of the combinations of the individual active compounds can be determined using Colby's formula, which is described below [Colby, S. R. “Calculating synergistic and antagonistic responses of herbicide combinations,” Weeds 15, 20-22 (1967)]: Colby's formula: E=A+B−(A×B/100) E is the predicted efficacy (control index) with reference to the untreated control when using the mixture of the active compound X at the concentration x and the active compound Y at the concentration y; A is the efficacy (control index) with respect to the untreated control when using the active compound X at the concentration x; B is the efficacy (control index) with respect to the untreated control when using the active compound […] at the concentration y.
Potted young seedlings of cucumber (variety: SAGAMI HANJIRO; in two-leaf stage) were sprayed with invention compounds formulated in accordance with Preparations and the existing antimicrobial active compounds listed in Table 3 (all compounds are identified by associated letters of the alphabet) after they were diluted with water to predetermined concentrations so that they would serve as active compounds; a spray gun was used to provide a spray rate of 15 ml per pot. After air-drying, the seedlings were inoculated with conida of Sphaerotheca fuliginea by spraying a suspension of the conida. Thereafter, the seedlings were cultivated for 14 days in a greenhouse and the percentage of diseased area was investigated for each leaf; based on the result of this investigation, the control index was calculated using the following formula: Control index={(percentage of diseased area on the untreated control−percentage of diseased area on treated sample)/percentage of diseased area on the untreated control}×100

[1] = Podosphaera fuliginea, 336 h, individual active compound, test concentration 10 ppm
[2] = Podosphaera fuliginea, 336 h, individual active compound
[3] = Podosphaera fuliginea, 336 h, individual active compound, test concentration 1 ppm

SMILES: CC1COC(Cn2cncn2)(c2ccc(Oc3ccc(Cl)cc3)cc2Cl)O1 (stereo not shown) [Ha: Difenoconazole, difenoconazole]
- pest or weed control at 10 ppm (Sphaerotheca fuliginea; [1]): 27%

SMILES: CCCOC/C(=N\c1ccc(Cl)cc1C(F)(F)F)n1ccnc1 [Hd: Triflumizole, triflumizole]
- pest or weed control at 10 ppm (Sphaerotheca fuliginea; [1]): 39%

SMILES: CC(C)(C)C(O)(CCc1ccc(Cl)cc1)Cn1cncn1 (stereo not shown) [Hb: Tebuconazole, tebuconazole]
- pest or weed control at 10 ppm (Sphaerotheca fuliginea; [1]): 42%

SMILES: CC(Cc1ccc(C(C)(C)C)cc1)CN1C[C@@H](C)O[C@@H](C)C1 (stereo partly shown) [He: Fenpropimorph, fenpropimorph]
- pest or weed control at 100 ppm (Sphaerotheca fuliginea; [2]): 12%

SMILES: CC(C)CC(C)c1sccc1NC(=O)c1cn(C)nc1C(F)(F)F (stereo not shown) [Da: Penthiopyrad, penthiopyrad]
- pest or weed control at 1 ppm (Sphaerotheca fuliginea; [3]): 51%

SMILES: CCCCCCCCCCCCc1ccc(S(=O)(=O)O)cc1.CCCCCCCCCCCCc1ccc(S(=O)(=O)O)cc1.CCCCCCCCCCCCc1ccc(S(=O)(=O)O)cc1.NC(N)=NCCCCCCCCNCCCCCCCCN=C(N)N [Ab: Iminoctadine albesilate, iminoctadine albesilate]
- Control index (Sphaerotheca fuliginea; individual active compound, test concentration 2 ppm): 41

SMILES: CC(C)(C)C(=O)C(Oc1ccc(Cl)cc1)n1cncn1 (stereo not shown) [Hc: Triadimefon, triadimefon]
- pest or weed control at 100 ppm (Sphaerotheca fuliginea; [2]): 21%

SMILES: Clc1ncccc1C#CCCNc1ncnc2ccccc12 [compound 195]
- melting point: 168 to 170 °C

SMILES: FC(F)(F)c1ccccc1C#CCCNc1ncnc2cc(Cl)ccc12 [compound 308]
- melting point: 153 to 154 °C

SMILES: O=C(Cc1ccccc1)N/C(=N\OCC1CC1)c1c(C(F)(F)F)ccc(F)c1F [Nc: Cyflufenamid, cyflufenamid]
- pest or weed control at 1 ppm (Sphaerotheca fuliginea; [3]): 49%

SMILES: Clc1ccc(C#CCCNc2ncnc3ccccc23)cc1Cl [compound 175]
- melting point: 147 to 148 °C

SMILES: O=[N+]([O-])c1ccc(C#CCCNc2ncnc3sccc23)cc1 [compound 40]
- melting point: 184 to 185 °C

SMILES: C(#Cc1cscn1)CCNc1ncnc2sccc12 [compound 63]
- melting point: 174 °C

SMILES: CC(C)(C)[Si](C)(C)C#CCCNc1ncnc2sccc12
- melting point: 190 to 192 °C

SMILES: CON=C(C(=O)OC)c1ccccc1CON=C(C)c1cccc(C(F)(F)F)c1 [Ec: Trifloxystrobin, trifloxystrobin]
- pest or weed control at 100 ppm (Sphaerotheca fuliginea; [2]): 24%

SMILES: Clc1cccc(C#CCCNc2ncnc3ccccc23)c1Cl [compound 171]
- melting point: 175 to 176 °C

SMILES: OCc1ccc(C#CCCNc2ncnc3ccccc23)cc1 [compound 132]
- melting point: 69 to 71 °C

SMILES: COC(=O)N(OC)c1ccccc1COc1ccn(-c2ccc(Cl)cc2)n1 [Ed: Pyraclostrobin, pyraclostrobin]
- pest or weed control at 100 ppm (Sphaerotheca fuliginea; [2]): 22%

SMILES: C(#Cc1ccccc1)CCNc1ncnc2ccccc12 [compound 96]
- melting point: 120 to 122 °C

SMILES: Fc1ccc(C#CCCNc2ncnc3ccccc23)cc1F [compound 166]
- melting point: 161 to 162 °C

SMILES: Fc1cncc(C#CCCNc2ncnc3ccccc23)c1 [compound 193]
- melting point: 145 to 150 °C

SMILES: FC(F)(F)c1cc(C#CCCNc2ncnc3sccc23)cc(C(F)(F)F)c1 [compound 28]
- melting point: 163 to 166 °C

SMILES: CCC(Nc1ncnc(C)c1Cl)c1ccc(OC(F)F)cc1 (stereo not shown) [Fa: Diflumetorim, diflumetorim]
- pest or weed control at 1 ppm (Sphaerotheca fuliginea; [3]): 42%

SMILES: C(#Cc1cccnc1)CCNc1ncnc2sccc12 [compound 56]
- melting point: 138 to 140 °C

SMILES: N#Cc1ccc(Oc2nc(C#CCCNc3ncnc4ccccc34)cs2)cc1 [compound 223]
- melting point: 55 to 57 °C

SMILES: Cc1cccc(C#CCCNc2ncnc3sccc23)c1 [compound 18]
- melting point: 120 to 123 °C

SMILES: CSC(=O)c1cccc2nnsc12 [Ma: Acibenzolar-S-methyl, acibenzolar-5-methyl]
- Control index (Sphaerotheca fuliginea; individual active compound, test concentration 10 ppm): 38

SMILES: Fc1cc(C#CCCNc2ncnc3sccc23)cc(F)c1F [compound 43]
- melting point: 158 to 159 °C

SMILES: CS(=O)(=O)c1ccc(C#CCCNc2ncnc3ccccc23)cc1 [compound 120]
- melting point: 164 to 165 °C

SMILES: Fc1cccc(Oc2nc(C#CCCNc3ncnc4ccccc34)cs2)c1 [compound 225]
- melting point: 134 to 136 °C

SMILES: COCc1ccccc1C#CCCNc1ncnc2c(Cl)cc(Cl)cc12 [compound 338]
- melting point: 161 to 162 °C

SMILES: OCc1cc(C#CCCNc2ncnc3ccccc23)co1 [compound 209]
- melting point: 135 to 147 °C

SMILES: OCc1cccc(C#CCCNc2ncnc3ccccc23)c1 [compound 131]
- melting point: 113 to 115 °C

SMILES: FC(F)(F)c1ccccc1C#CCC(Nc1ncnc2ccccc12)c1ccccc1 (stereo not shown) [compound 302]
- melting point: 150 to 152 °C

SMILES: FC(F)(F)c1cccc(Oc2nc(C#CCCNc3ncnc4ccccc34)cs2)c1 [compound 219]
- melting point: 106 to 108 °C

SMILES: Cc1nc(C#CCCNc2ncnc3sccc23)cs1 [compound 66]
- melting point: 160 to 161 °C

SMILES: C(#Cc1csc(-c2ccsc2)n1)CCNc1ncnc2sccc12 [compound 80]
- melting point: 55 to 56 °C

SMILES: CSc1cccc(C#CCCNc2ncnc3ccccc23)c1 [compound 116]
- melting point: 141 to 142 °C

SMILES: Clc1cc(NCCC#Cc2ccccc2)ncn1 [compound 358]
- melting point: 118 to 120 °C

SMILES: COc1ccccc1N1CCS/C1=C(/C#N)Sc1cc(C(F)(F)F)ccc1F [Nd: Flutianil, flutianil]
- Control index (Sphaerotheca fuliginea; individual active compound, test concentration 1 ppm): 42

SMILES: OC(c1ccccc1C#CCCNc1ncnc2ccccc12)C(F)(F)F (stereo not shown) [compound 138]
- melting point: 183 to 187 °C

SMILES: C=C(C#CCCNc1ncnc2ccccc12)CO [compound 92]
- melting point: 139 °C

SMILES: COC(=O)NC(=S)Nc1ccccc1NC(=S)NC(=O)OC [Ca: Thiophanate-methyl, thiophanate-methyl]
- pest or weed control at 2 ppm (Sphaerotheca fuliginea; Podosphaera fuliginea, 336 h, individual active compound, test concentration 2 ppm): 40%

SMILES: C(#Cc1ccc(OC2CCCCO2)cc1)CCNc1ncnc2ccccc12 (stereo not shown) [compound 156]
- melting point: 163 to 165 °C

SMILES: Fc1ccc(C#CCCNc2ncnc3sccc23)c(F)c1 [compound 41]
- melting point: 177 to 178 °C

SMILES: COCc1ccccc1C#CCCNc1ncnc2ccc(I)cc12 [compound 322]
- melting point: 121 to 123 °C

SMILES: Clc1ncnc(NCCC#Cc2ccccc2)c1Cl [compound 357]
- melting point: 122 to 123 °C

SMILES: Cc1ccc2nc3sc(=O)sc3nc2c1 [Nb: Chinomethionate, chinomethionat]
- pest or weed control at 10 ppm (Sphaerotheca fuliginea; Podosphaera fuliginea, 336 h): 38%

SMILES: C(#Cc1csc(-c2cccnc2)n1)CCNc1ncnc2sccc12 [compound 81]
- melting point: 175 to 177 °C

SMILES: OCc1nc(C#CCCNc2ncnc3sccc23)cs1 [compound 70]
- melting point: 193 °C

SMILES: CCOc1ccccc1C#CCCNc1ncnc2ccccc12 [compound 118]
- melting point: 119 to 120 °C

SMILES: Fc1ccc(Oc2ccnc3cc(Cl)cc(Cl)c23)cc1 [Ia: Quinoxyfen, quinoxyfen]
- pest or weed control at 1 ppm (Sphaerotheca fuliginea; [3]): 39%

SMILES: FC(F)(F)c1cccc(C#CCCNc2ncnc3sccc23)c1 [compound 26]
- melting point: 123 to 125 °C

SMILES: FC(F)(F)c1ccc(Cl)c(C#CCCNc2ncnc3ccccc23)c1 [compound 176]
- melting point: 144 to 145 °C

SMILES: C(#Cc1csc(-c2ccco2)n1)CCNc1ncnc2sccc12 [compound 77]
- melting point: 53 to 55 °C

SMILES: OCc1ccc(C#CCCNc2ncnc3ccccc23)cn1 [compound 202]
- melting point: 183 to 185 °C

SMILES: COC(=O)c1cccc(C#CCCNc2ncnc3sccc23)c1 [compound 30]
- melting point: 163 to 166 °C

SMILES: CC(C)[Si](C#CCCNc1ncnc2sccc12)(C(C)C)C(C)C
- melting point: 196 to 198 °C
